The values below come from ChEMBL document CHEMBL1127407, “Unambiguous total synthesis of the enantiomers of myo-inositol 1,3,4-trisphosphate: 1L-myo-inositol 1,3,4-trisphosphate mobilizes intracellular Ca2+ in Limulus photoreceptors” (J Med Chem, 1994).

Molecules are shown by their SMILES.

Data set [1] is described as follows: Peak depolarizations produced by injections of 100 micro M Ins p3 isomers in nine cells. The format is cell-based.
The nature of data set [2]: Peak depolarizations produced by injections of 100 micro M Ins p3 isomers in six cells. The format is cell-based.

For the compound `O=P(O)(O)OC1C(O)C(O)C(OP(=O)(O)O)C(OP(=O)(O)O)C1O` (stereo in doubt; form 1) [INOSITOL (1,4,5) (PHOSPHATE)3], in data set [1], the Depolarisation came to 24 mV.

For the compound `O=P(O)(O)OC1C(O)C(O)C(OP(=O)(O)O)C(OP(=O)(O)O)C1O` (stereo in doubt; form 2) [INOSITOL (1,4,5) (PHOSPHATE)3], the Depolarisation in data set [2] amounted to 32.5 mV.

Turning to `O=P(O)(O)OC1C(O)C(O)C(OP(=O)(O)O)C(OP(=O)(O)O)C1O` (stereo in doubt; form 3) [INOSITOL (1,4,5) (PHOSPHATE)3], the Depolarisation in data set [1] came to 5.7 mV; in data set [2] it was 3.4 mV.
